These are literature values, as cited in article PMC8258280 (Virologica Sinica, 2021).

The series has as its system SARS-CoV 3CL^pro. The following applies: read-out: IC50 against SARS-CoV 3CL^pro.

With `O=c1cc(-c2ccc(O)c(-c3c(O)cc(O)c4c(=O)cc(-c5ccc(O)cc5)oc34)c2)oc2cc(O)cc(O)c12` [amentoflavone], the IC50 is 8.3 µM.
